Test results published in US20090288225A1, “Novel Aromatic Acyltransferase Genes” (Aomori Prefecture, priority 2006, published 2009).
Values belong to the molecule of their own block, whether it stands above or below them.

Legend:
[1] = system: 35-70% ammonium sulfate precipitate fraction of the protein extracted from butterfly pea petals; experiment: Examination of substrates: acyltransferase activity with butterfly pea petal protein fraction; format: biochemical, butterfly pea (Clitoria ternatea); conditions: for acyltransferase activity as acyl donor: acyl receptor preternatin C5, specific activity order: sinapoyl, feruloyl, p-coumaroyl, caffeoyl glucose (highest first); for acyltransferase activity as acyl acceptor: acyl donor 1-O-p-coumaroyl-β-D-glucose
Description: (§1) A reaction solution (20 μl) containing 100 mM phosphate buffer (pH 6.5), 0.4 mM anthocyanin (4 μl), 0.5 mM 1-O-acyl-β-D-glucose (4 μl) and an enzyme solution (8 μl) was reacted at 30° C. The reaction was terminated by adding 4 μl of 1M aqueous hydrochloric acid solution. After addition of 24 μl of 5% acetonitrile containing 0.05 M TFA, the reaction solution was filtered with Millex-LH filter (Millipore) and then analyzed by HPLC by feeding a 10 μl aliquot.
(§2) HPLC analysis of anthocyanin acyltransferase reaction products were performed with Develosil ODS-UG-5 column (3.0 i.d.×250 mm; Nomura Chemical) at a column temperature of 35° C. Against an initial solvent that was 0.05 M trifluoroacetate (TFA)-containing 5% acetonitrile (MeCN) aqueous solution, 0.05 M TFA-containing 40% MeCN was added with a linear concentration gradient from 14 to 86% (20 min) and the reaction products were eluted at a flow rate of 0.5 ml/min. The reaction products were detected with PDA and their molecular weights were confirmed by LC-MS/MS.
In order to detect an enzyme activity of transferring an aromatic acyl group to the sugar residue of flavonoids using 1-O-acyl-β-D-glucose as an acyl donor, various types of 1-O-acyl-β-D-glucose and anthocyanin were examined. Briefly, enzyme activities were measured using 35-70% ammonium sulfate precipitate fraction of the protein extracted from butterfly pea petals as an enzyme solution, preternatin C5 as an acyl receptor, and various 1-O-acyl-β-D-glucoses as an acyl donor. […] Specific activity was higher in the following order: 1-O-sinapoyl-β-D-glucose, 1-O-feruloyl-β-D-glucose, 1-O-p-coumaroyl-β-D-glucose and 1-O-caffeoyl-β-D-glucose. Further, enzyme activities were measured using 1-O-p-coumaroyl-β-D-glucose as an acyl donor and various types of anthocyanin as an acyl acceptor.

[2] = Enzyme activity of recombinant CtSCPL1 protein expressed in Baculovirus-Sf9 insect cells; format: biochemical, butterfly pea (Clitoria ternatea)
Description: as §1, §2
Sf9 cells monolayer-cultured in complete Grace medium or Sf900II-SFM serum free medium (Gibco) in 6-well plates (3×10^6 cells) were infected with the recombinant virus at a multiplicity of infection (MOI) of 5-10. […] Enzyme reaction was performed using the thus concentrated protein solution, and the reaction product was analyzed by HPLC and LC-MS. […]

acyltransferase activity as acyl donor [1]: acyltransferase activity was detected
Molecule: COc1cc(/C=C/C(=O)O[C@@H]2O[C@H](CO)[C@@H](O)[C@H](O)[C@H]2O)cc(OC)c1O [1-O-sinapoyl-β-D-glucose]

Molecule: O=C(O)CC(=O)OC[C@H]1O[C@@H](Oc2cc3c(O)cc(O)cc3[o+]c2-c2cc(O[C@@H]3O[C@H](CO)[C@@H](O)[C@H](O)[C@H]3O)c(O)c(O[C@@H]3O[C@H](CO)[C@@H](O)[C@H](O)[C@H]3O)c2)[C@H](O)[C@@H](O)[C@@H]1O [ternatin C5, Delphinidin 3-(6-malonyl)glucoside 3′,5′-diglucoside]
acyltransferase activity as acyl acceptor [1]: acyltransferase activity was detected

acyltransferase activity as acyl acceptor [1]: acyltransferase activity was detected
Molecule: OC[C@H]1O[C@@H](Oc2cc3c(O)cc(O)cc3[o+]c2-c2cc(O[C@@H]3O[C@H](CO)[C@@H](O)[C@H](O)[C@H]3O)c(O)c(O[C@@H]3O[C@H](CO)[C@@H](O)[C@H](O)[C@H]3O)c2)[C@H](O)[C@@H](O)[C@@H]1O [preternatin C5, delphinidin 3,3′,5′-triglucoside]

acyltransferase activity as acyl donor [1]: acyltransferase activity was detected
Molecule: COc1cc(/C=C/C(=O)O[C@@H]2O[C@H](CO)[C@@H](O)[C@H](O)[C@H]2O)ccc1O [1-O-feruloyl-β-D-glucose]

acyltransferase activity as acyl donor [1]: acyltransferase activity was detected
Molecule: O=C(/C=C/c1ccc(O)cc1)O[C@@H]1O[C@H](CO)[C@@H](O)[C@H](O)[C@H]1O [1-O-p-coumaroyl-β-D-glucose]

acyltransferase activity as acyl donor [1]: acyltransferase activity was detected
Molecule: O=C(/C=C/c1ccc(O)c(O)c1)O[C@@H]1O[C@H](CO)[C@@H](O)[C@H](O)[C@H]1O [1-O-caffeoyl-β-D-glucose]

acyltransferase activity as acyl acceptor [1]: acyltransferase activity was detected
Molecule: O=C(O)CC(=O)OCC1OC(Oc2cc3c(O)cc(O)cc3[o+]c2-c2cc(O)c(O)c(OC3OC(CO)C(O)C(O)C3O)c2)C(O)C(O)C1O (stereo not drawn) [delphinidin 3-(6-malonyl)glucoside-3′-glucoside]

B1: CtSCPL1: butterfly pea SCPL acyltransferase, 487 amino acid residues, SEQ ID NO: 2 (protein)
chain: MAAFSSTHSACGILLLPLVVSSLICFQLASCGTIVEFLPGFDGPLPFVLETGYVGVGEGEDVQVFYYFVESENNPNEDPLMLWLTGGPGCSAFSGLALEIGPLIFKREEYNGGLPNLILRPHSWTKVSSIIFVDLPVSTGFTYARTDAAAQRSDWTLVHHAHEFLRKWLIDHPKFLQNELYIGGDSYSGIPIPVIVQEISQENEKGIQPWINLQGYILGNAITTRREKGYSIPFAHGMALISDELYESLRKNCKGEYLNVDPENVLCSRDIDSYSKATSRISFAHILERTCNSGDIKTSLRRSTIQRHHTKKFLNTNLKLPPLTCRTYANFQCGLWANDDNVRSALHIHKGSIGEWHRCSIRLPFTSDIPNSFEYHVNLSRKGYYRSLIYSGDHDMMVPFLGTQAWIRSLNYSIVDDWRPWNTNGQVAGYTRTYSNRMTYATIKGGGHTAPEFKPEECFAMYSRWISKRPLYENNTMSSYTNLASIL
modifications: Clitoria ternatea cv. Double Blue; Amino acid sequence of 1-O-acyl-Beta-D-glucose anthocyanin-O-acyltansferase
3′AT activity ([2]; substrates preternatin C5 or delphinidin 3-(6-malonyl)glucoside-3′-glucoside and 1-O-feruloyl-β-D-glucose): 3′AT activity was confirmed
3′AT activity ([2]; substrates ternatin C5 and 1-O-p-coumaroyl-β-D-glucose): 3′AT activity was also recognized
